From patent US20010020032A1, “COATED PARTICLE FORMULATION” (priority 1996, published 2001)

Experiments:
[1] = Polymorphic stability of Form II on solvent contact; assay type: physicochemical; settings: contact with methylene chloride
[2] = Detection of radiolabelled compound in saliva; assay type: in vivo
Description: Olanzapine is effective over a wide dosage range, the actual dose administered being dependent on the condition being treated. For example, in the treatment of adult humans, dosages of from about 0.25 to 50 mg, preferably from 1 to 30 mg, and most preferably 1 to 25 mg per day may be used. A once a day dosage is normally sufficient, although divided doses may be administered. For treatment of central nervous system disorders, a dose range of from 1 to 30 mg, preferably 1 to 25 mg per day is suitable.

[3] = Stability studies: discoloration on storage or excipient contact; assay type: physicochemical; settings: olanzapine substance in contact with polyethylene glycol, particularly under moist conditions

SMILES: Cc1cc2c(s1)Nc1ccccc1N=C2N1CCN(C)CC1 [Form II, 2-methyl-4-(4-methyl-1-piperazinyl)-10H-thieno[2,3-b][1,5]benzodiazepine]
- conversion to other polymorphic forms [1]: can be converted to less desirable polymorphic forms

SMILES: Cc1cc2c(s1)Nc1ccccc1N=C2N1CCN(C)CC1 [Radiolabelled Form II, 2-methyl-4-(4-methyl-1-piperazinyl)-10H-thieno-[2,3-b][1,5]benzodiazepine]
- detection in saliva [2]: can be detected in the saliva

SMILES: Cc1cc2c(s1)Nc1ccccc1N=C2N1CCN(C)CC1 [olanzapine, 2-methyl-4-(4-methyl-1-piperazinyl)-10H-thieno[2,3-b][1,5] benzodiazepine]
- discoloration on polyethylene glycol contact [3]: produces undesired discoloration
